Our source for the IC50 values is US7932270B2 (Cytokinetics, Inc., priority 2006, dated 2011).

pIC50: −log10 of the molar value.

For the assay, the target named is T1, chicken gizzard smooth muscle myosin subfragment-1 chemically crosslinked to cardiac or skeletal actin (Gallus gallus, UniProt P10587).
T1 construct: chicken gizzard smooth muscle myosin subfragment-1; from tissue; host or cells: chicken gizzard
T1 sequence (P02607 2-151): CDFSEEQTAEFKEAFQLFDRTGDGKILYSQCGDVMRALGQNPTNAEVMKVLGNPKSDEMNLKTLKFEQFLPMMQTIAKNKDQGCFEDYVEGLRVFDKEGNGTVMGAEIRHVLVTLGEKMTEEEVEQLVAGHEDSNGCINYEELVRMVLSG
T1 sequence (P10587 84-789): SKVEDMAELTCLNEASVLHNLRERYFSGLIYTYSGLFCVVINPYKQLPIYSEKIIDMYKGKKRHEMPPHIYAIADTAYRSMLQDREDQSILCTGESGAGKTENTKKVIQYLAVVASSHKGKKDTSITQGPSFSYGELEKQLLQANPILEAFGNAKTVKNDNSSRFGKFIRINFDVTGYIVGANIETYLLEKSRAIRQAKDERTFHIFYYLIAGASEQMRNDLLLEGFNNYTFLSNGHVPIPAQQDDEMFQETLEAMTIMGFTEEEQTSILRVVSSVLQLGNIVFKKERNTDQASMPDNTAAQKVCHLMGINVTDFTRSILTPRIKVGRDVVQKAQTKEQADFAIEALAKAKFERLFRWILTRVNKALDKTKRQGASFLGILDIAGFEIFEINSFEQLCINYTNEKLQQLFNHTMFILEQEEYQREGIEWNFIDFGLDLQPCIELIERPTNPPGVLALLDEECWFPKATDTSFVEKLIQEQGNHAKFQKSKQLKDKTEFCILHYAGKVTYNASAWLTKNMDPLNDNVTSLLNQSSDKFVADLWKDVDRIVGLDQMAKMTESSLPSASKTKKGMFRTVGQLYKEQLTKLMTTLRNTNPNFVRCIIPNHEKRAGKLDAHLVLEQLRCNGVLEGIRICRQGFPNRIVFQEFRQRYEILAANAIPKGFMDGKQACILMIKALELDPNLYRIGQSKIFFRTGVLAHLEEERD
Description: Smooth muscle myosin ATPase dose response assay (pyruvate kinase/horseradish peroxidase/pyruvate oxidase-coupled, amplex red fluorescence). Format: biochemical. To be noted: read-out: IC50 Arithmetic Mean. Put shortly:
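ATPase monitored by amplex red fluorescence (ex 480/em 615 nm) via pyruvate oxidase/HRP coupling, pH 7.00, ATP 0.15 mM. Enzyme: smooth muscle S1-actin crosslinked conjugate, amount set empirically by titration. Dose-response fitted with 4-parameter Hill equation for IC50.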
Turning to `CN(CCNC(=O)c1ccc(-c2ccccc2C#N)nc1NCCc1cccc(F)c1)C(=O)CCN` [3-amino-N-{2-[(6-(2-cyanophenyl)-2-{[2-(3-fluorophenyl)ethyl]amino}(3-pyridyl))carbonylamino]ethyl}-N-methylpropanamide], the pIC50 was 5.75.
The figure for `N#Cc1ccccc1-c1ccc(C(=O)NCCCN2C(=O)CC[C@H]2CN=[N+]=[N-])c(NCCc2cccc(F)c2)n1` is 4.78.
The figure for `N#Cc1ccccc1-c1ccc(C(=O)NCC2CCCN2CCCN)c(NCCc2cccc(F)c2)n1` (centres unmarked) is 5.46; for `CNC(=O)[C@H](CO)NC(=O)c1ccc(-c2ccccc2C#N)nc1NCCc1cccc(F)c1` [(2S)-2-[(6-(2-cyanophenyl)-2-{[2-(3-fluorophenyl)ethyl]amino}(3-pyridyl))carbonylamino]-3-hydroxy-N-methylpropanamide] it is 5.95; for `CN1CCN(C(=O)CCCN)C[C@@H]1CNC(=O)c1ccc(-c2ccccc2C#N)nc1NCCc1cccc(F)c1` [N-{[(2S)-4-(4-aminobutanoyl)-1-methylpiperazin-2-yl]methyl}(6-(2-cyanophenyl)-2-{[2-(3-fluorophenyl)ethyl]amino}(3-pyridyl))carboxamide] it is 5.17.
On to `N[C@@H](CO)C(=O)N1CCCC1CNC(=O)c1cc(F)c(-c2cc[nH]n2)nc1NCCc1cccc(F)c1` (stereo partly drawn) [N-{[(2R)-1-((2S)-2-amino-3-hydroxypropanoyl)pyrrolidin-2-yl]methyl}(5-fluoro-2-{[2-(3-fluorophenyl)ethyl]amino}-6-pyrazol-3-yl(3-pyridyl))carboxamide], for which the pIC50 was 6.57.
Next, `CN(CCNC(=O)c1ccc(-c2ccccc2C#N)nc1NCCc1cccc(F)c1)C(=O)OC(C)(C)C` [N-{2-[(tert-butoxy)-N-methylcarbonylamino]ethyl}(6-(2-cyanophenyl)-2-{[2-(3-fluorophenyl)ethyl]amino}(3-pyridyl))carboxamide]: 4.37; `C[C@H](CNC(=O)c1cc(F)c(-c2cn[nH]c2)nc1NCCn1cccn1)NC(=O)CN`: 5.33; `CC(C)(C)OC(=O)NCCCN1C(=O)CCCCC1CNC(=O)c1ccc(-c2ccccc2C#N)nc1NCCc1cccc(F)c1` (centres unmarked) [N-[(1-{3-[(tert-butoxy)carbonylamino]propyl}-7-oxoazaperhydroepin-2-yl)methyl](6-(2-cyanophenyl)-2-{[2-(3-fluorophenyl)ethyl]amino}(3-pyridyl))carboxamide]: 4.77.
Next, `COC(=O)N1CCNC[C@@H]1CNC(=O)c1ccc(-c2ccccc2C#N)nc1NCCc1cccc(F)c1` [methyl (2R)-2-{[(6-(2-cyanophenyl)-2-{[2-(3-fluorophenyl)ethyl]amino}(3-pyridyl))carbonylamino]methyl}piperazinecarboxylate]: 4.94; `C[C@H](CNC(=O)c1ccc(-c2ccccc2C#N)nc1NCCc1cccc(F)c1)NC(=O)CCCN`: 6.69; `NCCn1ccc(CNC(=O)c2ccc(-c3cc[nH]n3)nc2NCCc2cccc(F)c2)n1` [N-{[1-(2-aminoethyl)pyrazol-3-yl]methyl}(2-{[2-(3-fluorophenyl)ethyl]amino}-6-pyrazol-3-yl(3-pyridyl))carboxamide]: 5.26.
As for `NCCCNc1cccc(CNC(=O)c2ccc(-c3cn[nH]c3)nc2NCCc2cccc(F)c2)n1` [N-({6-[(3-aminopropyl)amino](2-pyridyl)}methyl)(2-{[2-(3-fluorophenyl)ethyl]amino}-6-pyrazol-4-yl(3-pyridyl))carboxamide], the pIC50 was 7.74.
Regarding `N#Cc1ccccc1-c1ccc(C(=O)NC[C@H]2CCC(=O)N2CCCCCN)c(NCCc2cccc(F)c2)n1` [N-{[(2R)-1-(5-aminopentyl)-5-oxopyrrolidin-2-yl]methyl}(6-(2-cyanophenyl)-2-{[2-(3-fluorophenyl)ethyl]amino}(3-pyridyl))carboxamide], the pIC50 is 7.41.
Next, `C[C@H](CNC(=O)c1cc(F)c(-c2cnn(C)c2)nc1NCCc1cccc(F)c1)C(=O)O` [(2R)-3-[(5-fluoro-2-{[2-(3-fluorophenyl)ethyl]amino}-6-(1-methylpyrazol-4-yl)(3-pyridyl))carbonylamino]-2-methylpropanoic acid]: 5.42; `N#Cc1ccccc1-c1ccc(C(=O)NC[C@H]2CCCCN2C(=O)OCCCl)c(NCCc2cccc(F)c2)n1` [2-chloroethyl (2R)-2-{[(6-(2-cyanophenyl)-2-{[2-(3-fluorophenyl)ethyl]amino}(3-pyridyl))carbonylamino]methyl}piperidinecarboxylate]: 5.57; `CC(C)(C)OC(=O)NCCC(=O)N1CCC[C@H](CNC(=O)c2ccc(-c3ccccc3C#N)nc2NCCc2cccc(F)c2)C1` [N-[((3R)-1-{3-[(tert-butoxy)carbonylamino]propanoyl}(3-piperidyl))methyl](6-(2-cyanophenyl)-2-{[2-(3-fluorophenyl)ethyl]amino}(3-pyridyl))carboxamide]: 5.42.
The figure for `CC(C)(C)OC(=O)NCCC(=O)N1CCCC[C@H]1CNC(=O)c1ccc(-c2ccccc2C#N)nc1NCCc1cccc(F)c1` [N-[((2S)-1-{3-[(tert-butoxy)carbonylamino]propanoyl}(2-piperidyl))methyl](6-(2-cyanophenyl)-2-{[2-(3-fluorophenyl)ethyl]amino}(3-pyridyl))carboxamide] is 5.06; for `COC(=O)[C@H](C)CNC(=O)c1cc(F)c(-c2cnn(C)c2)nc1NCCc1cccc(F)c1` [methyl (2R)-3-[(5-fluoro-2-{[2-(3-fluorophenyl)ethyl]amino}-6-(1-methylpyrazol-4-yl)(3-pyridyl))carbonylamino]-2-methylpropanoate] it is 7.00.
For `CC(=O)N1CCN(c2ccc(CNC(=O)c3ccc(-c4ccccc4C#N)nc3NCCc3cccc(F)c3)cn2)CC1` [N-{[6-(4-acetylpiperazinyl)(3-pyridyl)]methyl}(6-(2-cyanophenyl)-2-{[2-(3-fluorophenyl)ethyl]amino}(3-pyridyl))carboxamide], the pIC50 was 5.11.
Next, `COC(=O)CCC(=O)N1CCC[C@@H]1CNC(=O)c1ccc(-c2cnn(C)c2)nc1NCCc1cccc(F)c1` [methyl 4-((2R)-2-{[(2-{[2-(3-fluorophenyl)ethyl]amino}-6-(1-methylpyrazol-4-yl)(3-pyridyl))carbonylamino]methyl}pyrrolidinyl)-4-oxobutanoate]: 5.41; `N#Cc1ccccc1-c1ccc(C(=O)NCCCN)c(NCCc2cccc(F)c2)n1` [N-(3-aminopropyl)(6-(2-cyanophenyl)-2-{[2-(3-fluorophenyl)ethyl]amino}(3-pyridyl))carboxamide]: 6.00; `COC(=O)N1CCC[C@H](CNC(=O)c2ccc(-c3ccccc3C#N)nc2NCCc2cccc(F)c2)C1` [methyl (3R)-3-{[(6-(2-cyanophenyl)-2-{[2-(3-fluorophenyl)ethyl]amino}(3-pyridyl))carbonylamino]methyl}piperidinecarboxylate]: 6.14.
On to `COc1cccc(-c2ccc(C(=O)NCc3cccnc3)c(NCCc3ccccn3)n2)c1` [{6-(3-methoxyphenyl)-2-[(2-(2-pyridyl)ethyl)amino](3-pyridyl)}-N-(3-pyridylmethyl)carboxamide], for which the negative logarithm of the IC50 (pIC50) is 4.83.
Next, `C[C@H](NC(=O)OC(C)(C)C)C(=O)N1CCC[C@@H]1CNC(=O)c1ccc(-c2ccccc2C#N)nc1NCCc1cccc(F)c1` [N-[2-((2R)-2-{[(6-(2-cyanophenyl)-2-{[2-(3-fluorophenyl)ethyl]amino}(3-pyridyl))carbonylamino]methyl}pyrrolidinyl)(1S)-1-methyl-2-oxoethyl](tert-butoxy)carboxamide]: 5.49; `N#Cc1ccccc1-c1ccc(C(=O)NCc2cccnc2)c(NCCc2cccc(F)c2F)n1` [(2-{[2-(2,3-difluorophenyl)ethyl]amino}-6-(2-cyanophenyl)(3-pyridyl))-N-(3-pyridylmethyl)carboxamide]: 7.66; `CC(C)(C)OC(=O)NCCCN1C(=O)CC[C@H]1CNC(=O)c1ccc(-c2ccccc2C#N)nc1NCCc1cccc(F)c1` [N-[((2S)-1-{3-[(tert-butoxy)carbonylamino]propyl}-5-oxopyrrolidin-2-yl)methyl](6-(2-cyanophenyl)-2-{[2-(3-fluorophenyl)ethyl]amino}(3-pyridyl))carboxamide]: 5.35.
The figure for `N#Cc1cc(C(=O)NC[C@H]2CCCN2C(=O)CCCN)c(NCCc2cccc(F)c2)nc1-c1cn[nH]c1` [N-{[(2R)-1-(4-aminobutanoyl)pyrrolidin-2-yl]methyl}(5-cyano-2-{[2-(3-fluorophenyl)ethyl]amino}-6-pyrazol-4-yl(3-pyridyl))carboxamide] is 6.44; for `N#Cc1ccccc1-c1ccc(C(=O)NC[C@@H](N)C(N)=O)c(NCCc2cccc(F)c2)n1` [N-((2R)-2-amino-2-carbamoylethyl)(6-(2-cyanophenyl)-2-{[2-(3-fluorophenyl)ethyl]amino}(3-pyridyl))carboxamide] it is 6.49.
Next, `C[C@H](CO)CNC(=O)c1cc(F)c(-c2cnn(C)c2)nc1NCCc1cccc(F)c1` [N-((2S)-3-hydroxy-2-methylpropyl)(5-fluoro-2-{[2-(3-fluorophenyl)ethyl]amino}-6-(1-methylpyrazol-4-yl)(3-pyridyl))carboxamide]: 7.05; `Cc1csc(-c2ccc(C(=O)NCc3cccnc3)c(NCCc3cc(F)cc(F)c3)n2)c1` [(2-{[2-(3,5-difluorophenyl)ethyl]amino}-6-(4-methyl(2-thienyl))(3-pyridyl))-N-(3-pyridylmethyl)carboxamide]: 6.92.
As to `NCCCN1C(=O)CC[C@@H]1CNC(=O)c1ccc(-c2ccccc2C(N)=O)nc1NCCc1cccc(F)c1` [2-[5-(N-{[(2R)-1-(3-aminopropyl)-5-oxopyrrolidin-2-yl]methyl}carbamoyl)-6-{[2-(3-fluorophenyl)ethyl]amino}-2-pyridyl]benzamide], the pIC50 was 4.88.
